In patent US12635718B2, “Flavanone derivatives and their use as sweetness enhancers” (Firmenich SA, priority 2019, dated 2026):

What was measured:
taste panelists = test: Taste panel rating of sweetness and licorice taste of 5% sucrose solutions; assay type: in vivo, human; settings: scale 0 to 10, no enhancer 5.0
Experimental: A test compound, (2R,3R)-3-acetoxy-5,7,4′-trihydroxyflavanone (A01), was tested in comparison to naringenin for its sweetness enhancement of a 5% (w/w) aqueous solution of sucrose. Taste panelists were asked to taste the following 5% sucrose solutions in Henniez water and rate their sweetness on a scale from 0 to 10, and to rate the presence of any licorice taste in the sample on a scale from 0 to 10.
The test compound A01 was tested in comparison to other sweetness enhancers in a similar test to that set forth in Example 1. The comparative compounds are taxifolin 3-O-acetate (A02), and ampelopsin 3-O-acetate (A03).

panelists = test: Sweetener replacement test: panel choice between beverages (rebaudioside M, sucralose); assay type: in vivo, human; settings: for Panelists (of 45) who selected the beverage with test compound: statistical equivalence
From the text: In one test, 45 panelists were asked to select between a beverage sweetened with 450 ppm rebaudioside M and a beverage with 300 ppm rebaudioside M and 12 ppm test compound A01. Of the 45 panelists, 23 selected the former, and 22 selected the latter, which is a statistical equivalence. […] In another test, 45 panelists were asked to select between a beverage sweetened with 160 ppm sucralose and a beverage with 120 ppm sucralose and 12 ppm test compound A01. Of the 45 panelists, 22 selected the former, and 23 selected the latter, which is a statistical equivalence.

[1] = +20 ppm in 5% sucrose solution (Table 2)

| SMILES | Sweetness (0-10) (taste panelists; +50 ppm in 5% (w/w) sucrose solution in Henniez water) | Sweetness (0-10) (taste panelists; +5 ppm in 5% (w/w) sucrose solution in Henniez water) | Sweetness (0-10) (taste panelists; +10 ppm in 5% (w/w) sucrose solution in Henniez water) | Sweetness (0-10) (taste panelists; [1]) | Reduction in concentration of sucralose permitted (panelists; 12 ppm test compound, 160 ppm to 120 ppm sucralose) [%] | Reduction in concentration of rebaudioside M permitted (panelists; 12 ppm test compound, 450 ppm to 300 ppm rebaudioside M) [%] | Panelists (of 45) who selected the beverage with test compound (panelists; 120 ppm sucralose + 12 ppm A01 versus 160 ppm sucralose) | Panelists (of 45) who selected the beverage with test compound (panelists; 300 ppm rebaudioside M + 12 ppm A01 versus 450 ppm rebaudioside M) |
| --- | --- | --- | --- | --- | --- | --- | --- | --- |
| O=C1C[C@@H](c2ccc(O)cc2)Oc2cc(O)cc(O)c21 [naringenin, reference compound] | 5.8 | – | – | – | – | – | – | – |
| CC(=O)O[C@H]1C(=O)c2c(O)cc(O)cc2O[C@@H]1c1ccc(O)cc1 [A01, (2R,3R)-3-acetoxy-5,7,4′-trihydroxyflavanone] | – | 7.0 | 8.0 | 8.8 | 25 | 33 | 23 | 22 |
| CC(=O)OC1C(=O)c2c(O)cc(O)cc2OC1c1cc(O)c(O)c(O)c1 (stereo not drawn) [A03, ampelopsin 3-O-acetate, reference compound] | – | – | – | 5.1 | – | – | – | – |
